Results as given in patent publication EP0765662A1, “HIV GROWTH INHIBITORY COMPOSITION” (Kochi, Mutsuyuki, priority 1994, dated 1995).

System: HIVBRU
Experiment: HIV-p24 antigen released from HIV-infected A3.01 cells stimulated with TNF-α
Format: cell-based
Details: AZT 2 µg/ml in place of SBA, HIV-infected A3.01 cells
Excerpt: In view of all these test results, it appears that the inhibitory activity of SBA against the replication of HIV-1 is not attributable to that SBA directly acts on HIV so as to make lose the infectivity (infectious power) of HIV. (c) Test of examining the inhibitory activity of SBA against such replication of the viral particles of HIV which is induced when a tumor necrosis factor (TNF-α) is introduced into the HIV-infected A3.01 cells AIDS virus, HIVBRU (its reverse transcriptase activity, 0.03 cpm/cell) and 6 x 10^6 cells of the A3.01 cell (HAT-susceptible CEM cell strain) were mixed and reacted together in a culture medium at 37°C for 1 hour, and thereafter the mixed cells were washed with PBS to remove the excess of the particles of HIV virus therefrom. The A3.01 cells (5 x 10^5 cells) which had been so infected with HIV were then cultivated in various culture media containing TNF-α and SBA at different concentrations of them. The amount of the HIV-p24 antigen (an HIV-structural protein of HIV) which was released in the culture supernatant from the cultivated cells under test was periodically measured during the period of between 0 day to 5th day of the cultivation. The culture medium used for the above-mentioned cultivation of the A3.01 cells was an RPM1-1640 medium comprising 10% of heat-treated embryonic bovine serum, and minor amounts of penicillin, streptomycin, glutamine and mercaptoethanol. The amount of the HIV-p24 antigen produced was measured with lapse of time, and the relationship of the amount of the HIV-p24 antigen to the concentration of SBA is summarily tabulated in Table 4 below.
In the tests above, the replication of the viral particles of HIV was examined in terms of the amount of the p24 antigen protein produced and appearing in the culture supernatant from the cultivated cells. Thus, the amount of the p24 antigen produced was measured periodically over 6 days after the A3.01 cells were infested with HIV. It was then observed that in the absence of SBA, the replication of the viral particles of HIV was induced in the A3.01 cells by stimulation with 10 units/ml of TNF-α added. […] Thus, the effective amount of SBA has the activity to inhibit the replication of the viral particles of HIV within the cells to an extent as same as AZT, and from this it is expected that SBA is useful similarly to AZT for the therapeutic treatments of AIDS. (d) Tests for evaluating an inhibitory activity of SBA to the formation of giant cells from HIV-infected Molt-4 cells In a similar manner to that in the above Test (c), Molt-4 cells (a CD4-positive human T-cell strain) were infected with AIDS virus, HIVBRU. Thereafter, The HIV-infected Molt-4 cells were mixed with such Molt-4 cells which had no HIV-infection. And the mixture of these cells were cultivated at a high density of the mixed cells in the above-mentioned improved RPM1-1640 medium containing SBA at its different concentrations. Whereupon, there was examined the presence of cell-fused cell(s) (namely, the giant cells) which were formed by fusion of the HIV-infected cells with each other or by fusion of the HIV-infected cells with the HIV-non-infected cells. The formation and appearance of the giant cells was confirmed by microscopic observation. The size of such giant cells is clearly different from the size of the other usual cells. […] Namely, it is shown that SBA has an anti-HIV activity. […] In the initial stage of the transcription of HIV-1 gene, said NFkB, i.e. the transcription regulating factor of the host cells, plays an important role. […] NFkB is known to be a complex protein which is composed by the association of a molecule of protein having a molecular weight of about 50,000 (p50) with a molecule of protein having a molecular weight of about 65,000 (p65). […]

Measured: Amount of the HIV p24 antigen

Cc1cn([C@H]2C[C@H](N=[N+]=[N-])[C@@H](CO)O2)c(=O)[nH]c1=O [AZT, azidothymidine, reference compound]
0 pg/mL: 0th day | 1st day | 2nd day | 3rd day | 4th day | 5th day
